19 compounds from patent US20180370927A1, “MICROBIOCIDAL OXADIAZOLE DERIVATIVES” (SYNGENTA PARTICIPATIONS AG, priority 2015, published 2018) can be followed below.

Data set [1] relates to Uromyces viciae-Fabae. Nature of the data set: Uromyces viciae-fabae / field bean / leaf disc preventative (faba-bean rust). It is filed as in vivo. The note with it: foliar, 288 h, 100 ppm in the applied formulation, field bean leaf discs, assessed 12 days after application, read-out: disease control compared to untreated control leaf discs. The procedure:
Leaf disks or leaf segments of various plant species are cut from plants grown in a greenhouse. The cut leaf disks or segments are placed in multiwell plates (24-well format) onto water agar. The leaf disks are sprayed with a test solution before (preventative) or after (curative) inoculation. Compounds to be tested are prepared as DMSO solutions (max. 10 mg/mL) which are diluted to the appropriate concentration with 0.025% Tween20 just before spraying. The inoculated leaf disks or segments are incubated under defined conditions (temperature, relative humidity, light, etc.) according to the respective test system. A single evaluation of disease level is carried out 3 to 14 days after inoculation, depending on the pathosystem. Percent disease control relative to the untreated check leaf disks or segments is then calculated.
Example 5: Fungicidal Activity Against Uromyces viciae-Fabael Field Bean/Leaf Disc Preventative (Faba-Bean Rust)
Field bean leaf discs are placed on water agar in multiwell plates (96-well format) and 10 μL of the formulated test compound diluted in acetone and a spreader pipetted onto the leaf disc. Two hours after application leaf discs are inoculated by spraying a spore suspension on the lower leaf surface. The leaf discs are incubated in a climate cabinet at 22° C. with 18 hour days and 70% relative humidity. The activity of a compound is assessed as percent disease control compared to untreated when an appropriate level of disease damage appears in untreated check leaf disks (12 days after application).
The following compounds at 100 ppm in the applied formulation give at least 80% disease control in this test when compared to untreated control leaf discs under the same conditions, which show extensive disease development.

The subject of data set [2] is Glomerella lacenarium (Colletotrichum lacenarium). Nature of the data set: Glomerella lacenarium (Colletotrichum lacenarium) liquid culture / cucumber / preventative (anthracnose). It is filed as cell-based. The note with it: 20 ppm in the applied formulation, liquid culture in PDB, 24° C., 3 to 4 days after application, read-out: disease control (inhibition of growth, photometric) compared to untreated control. The method in brief:
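At 20 ppm in the applied formulation, compounds were mixed with fungal spores in potato dextrose broth and held at 24° C. After 3–4 days, photometric growth measurement gave percent antifungal activity relative to untreated control.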

Data set [3] has as its system Puccinia recondita f. Sp. Tritici. Nature of the data set: Puccinia recondita f. sp. tritici / wheat / leaf disc preventative (brown rust). It is filed as in vivo. The note with it: foliar, 200 ppm in the applied formulation, wheat leaf segments, preventative, assessed 7 to 9 days after application, read-out: disease control compared to untreated control leaf disks. The method in brief:
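Wheat cv. Kanzler leaf segments on agar sprayed with formulated compound in water, inoculated with rust spores 1 day later. Incubated at 19° C, 75% rh, 12 h light/12 h dark; percent disease control versus untreated scored 7 to 9 days after application; tested at 200 ppm.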

In data set [4] the test system is Phakopsora pachyrhizi. Nature of the data set: Phakopsora pachyrhizi / soybean / leaf disc preventative (Asian soybean rust). It is filed as in vivo. The note with it: foliar, 200 ppm in the applied formulation, soybean leaf disks, assessed 12 to 14 days after application, read-out: disease control compared to untreated control leaf disks. In a few lines: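 Soybean leaf discs on water agar were sprayed with formulated compound diluted in water, then inoculated one day later with spore suspension on the lower leaf surface. Held 24-36 h dark at 20° C., 75% RH, then 12 h light/day; percent disease control versus untreated scored 12 to 14 days after application.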

For data set [5], the system named is Puccinia recondita f. Sp. Tritici. Nature of the data set: Puccinia recondita f. sp. tritici / wheat / leaf disc curative (brown rust). The note with it: foliar, 200 ppm in the applied formulation, wheat leaf segments, curative (applied 1 day after inoculation), assessed 6 to 8 days after application, read-out: disease control compared to untreated control leaf disks. It is filed as in vivo. In a few lines: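 Curative treatment: formulated compound in water was applied 1 day post-inoculation to spore-inoculated wheat cv. Kanzler segments held on agar. Segments stayed at 19° C and 75% relative humidity (12 h photoperiod after application), and disease control relative to untreated checks was assessed 6 to 8 days later.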

A word on the inhibition: it is the share of the control response that was lost under treatment. The term melting point denotes the temperature, or range, at which the solid turns liquid.

`O=C(Nc1ccc(-c2noc(C(F)(F)F)n2)cc1)C(=O)c1ccccc1` [Compound 1.1, 2-oxo-2-phenyl-N-[4-[5-(trifluoromethyl)-1,2,4-oxadiazol-3-yl]phenyl]acetamide]: the pest or weed control at 100 ppm in data set [1] is ≥ 80%.
Turning to `O=C(Nc1ccc(-c2noc(C(F)(F)F)n2)cc1)C(=O)c1cccc(F)c1` [Compound 1.2, 2-(3-fluorophenyl)-2-oxo-N-[4-[5-(trifluoromethyl)-1,2,4-oxadiazol-3-yl]phenyl]acetamide], the pest or weed control at 100 ppm in data set [1] was ≥ 80%. In addition, the inhibition at 20 ppm in data set [2] was ≥ 80%.
For `CO/N=C(/C(=O)Nc1ccc(-c2noc(C(F)(F)F)n2)cc1)c1ccccc1` [Compound 2.1, (2E)-2-methoxyimino-2-phenyl-N-[4-[5-(trifluoromethyl)-1,2,4-oxadiazol-3-yl]phenyl]acetamide], in data set [1], the pest or weed control at 100 ppm is ≥ 80%.
As to `CON=C(C(=O)NCc1ccc(-c2noc(C(F)(F)F)n2)cc1)c1ccccc1` [Compound 2.2, 2-methoxyimino-2-phenyl-N-[[4-[5-(trifluoromethyl)-1,2,4-oxadiazol-3-yl]phenyl]methyl]acetamide], the pest or weed control at 100 ppm in data set [1] was ≥ 80%. The pest or weed control at 200 ppm in data set [3] was ≥ 80%. Also, in data set [2], the inhibition at 20 ppm is ≥ 80%.
The compound `CCOC(=O)C(=O)Nc1ccc(-c2noc(C(F)(F)F)n2)cc1` [Compound 2.3, ethyl 2-oxo-2-[4-[5-(trifluoromethyl)-1,2,4-oxadiazol-3-yl]anilino]acetate] came in with a melting point of 164 to 166 °C. Also, the pest or weed control at 100 ppm in data set [1] was ≥ 80%. Further, the pest or weed control at 200 ppm in data set [3] is ≥ 80%.
In the case of `O=C(O)C(=O)Nc1ccc(-c2noc(C(F)(F)F)n2)cc1` [Compound 3.1, 2-oxo-2-[4-[5-(trifluoromethyl)-1,2,4-oxadiazol-3-yl]anilino]acetic acid], the melting point was 184 to 186 °C. The pest or weed control at 100 ppm in data set [1] is ≥ 80%.
The compound `CN(C)C(=O)C(=O)Nc1ccc(-c2noc(C(F)(F)F)n2)cc1` [Compound 4.1, N′,N′-dimethyl-N-[4-[5-(trifluoromethyl)-1,2,4-oxadiazol-3-yl]phenyl]oxamide] yielded a melting point of 127 to 130 °C. Further, the pest or weed control at 200 ppm in data set [4] was ≥ 80%. Besides, the pest or weed control at 100 ppm in data set [1] was ≥ 80%. Also, the pest or weed control at 200 ppm in data set [5] was ≥ 80%. In data set [3], the pest or weed control at 200 ppm was ≥ 80%. The inhibition at 20 ppm in data set [2] was ≥ 80%.
On to `CN(C)C(=O)C(=O)NCc1ccc(-c2noc(C(F)(F)F)n2)cc1` [Compound 4.2], for which the melting point lay in the range of 107 to 112 °C. In addition, the pest or weed control at 200 ppm in data set [4] was ≥ 80%. Besides, the pest or weed control at 100 ppm in data set [1] was ≥ 80%. For the same compound, in data set [5], the pest or weed control at 200 ppm was ≥ 80%. In data set [3], the pest or weed control at 200 ppm was ≥ 80%. For the same compound, the inhibition at 20 ppm in data set [2] was ≥ 80%.
The compound `O=C(NCC1CC1)C(=O)Nc1ccc(-c2noc(C(F)(F)F)n2)cc1` [Compound 4.3, N-(cyclopropylmethyl)-N′-[4-[5-(trifluoromethyl)-1,2,4-oxadiazol-3-yl]phenyl]oxamide] returned a melting point of 209 to 212 °C. Further, in data set [4], the pest or weed control at 200 ppm is ≥ 80%. For the same compound, in data set [1], the pest or weed control at 100 ppm is ≥ 80%.
The compound `COCCNC(=O)C(=O)Nc1ccc(-c2noc(C(F)(F)F)n2)cc1` [Compound 4.4, N-(2-methoxyethyl)-N′-[4-[5-(trifluoromethyl)-1,2,4-oxadiazol-3-yl]phenyl]oxamide] returned a melting point of 204 to 205 °C. Moreover, the pest or weed control at 200 ppm in data set [4] was ≥ 80%. Further, the pest or weed control at 100 ppm in data set [1] is ≥ 80%. Moreover, the pest or weed control at 200 ppm in data set [5] is ≥ 80%. In addition, the pest or weed control at 200 ppm in data set [3] is ≥ 80%.
The compound `C#CCNC(=O)C(=O)Nc1ccc(-c2noc(C(F)(F)F)n2)cc1` [Compound 4.5, N-prop-2-ynyl-N′-[4-[5-(trifluoromethyl)-1,2,4-oxadiazol-3-yl]phenyl]oxamide] returned a melting point of 212 to 214 °C. Also, the pest or weed control at 200 ppm in data set [4] was ≥ 80%. Besides, the pest or weed control at 100 ppm in data set [1] was ≥ 80%.
In turn, `O=C(Nc1ccc(-c2noc(C(F)(F)F)n2)cc1)C(=O)NC1CC1` [Compound 4.6, N′-cyclopropyl-N-[4-[5-(trifluoromethyl)-1,2,4-oxadiazol-3-yl]phenyl]oxamide] showed a melting point of 238 to 241 °C. For the same compound, the pest or weed control at 200 ppm in data set [4] is ≥ 80%. Also, in data set [1], the pest or weed control at 100 ppm is ≥ 80%.
The compound `CNC(=O)C(=O)Nc1ccc(-c2noc(C(F)(F)F)n2)cc1` [Compound 4.7, N-methyl-N′-[4-[5-(trifluoromethyl)-1,2,4-oxadiazol-3-yl]phenyl]oxamide] showed a melting point of 231 to 234 °C. In addition, the pest or weed control at 200 ppm in data set [4] is ≥ 80%. For the same compound, the pest or weed control at 100 ppm in data set [1] was ≥ 80%. Further, the pest or weed control at 200 ppm in data set [5] was ≥ 80%. For the same compound, the pest or weed control at 200 ppm in data set [3] is ≥ 80%.
With `CN(C)NC(=O)C(=O)Nc1ccc(-c2noc(C(F)(F)F)n2)cc1` [Compound 4.8, 2-(2,2-dimethylhydrazino)-2-oxo-N-[4-[5-(trifluoromethyl)-1,2,4-oxadiazol-3-yl]phenyl]acetamide], the melting point was 232 to 234 °C. The pest or weed control at 200 ppm in data set [4] was ≥ 80%. The pest or weed control at 100 ppm in data set [1] was ≥ 80%.
Turning to `CON(C)C(=O)C(=O)Nc1ccc(-c2noc(C(F)(F)F)n2)cc1` [Compound 4.9, N′-methoxy-N′-methyl-N-[4-[5-(trifluoromethyl)-1,2,4-oxadiazol-3-yl]phenyl]oxamide], the melting point fell in the range of 163 to 165 °C. For the same compound, the pest or weed control at 200 ppm in data set [4] is ≥ 80%. For the same compound, the pest or weed control at 100 ppm in data set [1] was ≥ 80%. The pest or weed control at 200 ppm in data set [3] was ≥ 80%. In addition, the inhibition at 20 ppm in data set [2] is ≥ 80%.
Consider `CCCON(Cc1ccc(-c2noc(C(F)(F)F)n2)cc1)C(=O)C(N)=O` [Compound 4.11, N′-propoxy-N′-[[4-[5-(trifluoromethyl)-1,2,4-oxadiazol-3-yl]phenyl]methyl] oxamide], for which the pest or weed control at 100 ppm in data set [1] was ≥ 80%. The pest or weed control at 200 ppm in data set [3] is ≥ 80%. Further, in data set [2], the inhibition at 20 ppm is ≥ 80%.
`COCCNC(=O)C(=O)Nc1ccc(-c2noc(C(F)(F)F)n2)cc1C` [Compound 4.38, N-(2-methoxyethyl)-N′-[2-methyl-4-[5-(trifluoromethyl)-1,2,4-oxadiazol-3-yl]phenyl] oxamide] showed a melting point of 126 to 130 °C. The pest or weed control at 200 ppm in data set [4] was ≥ 80%. Moreover, in data set [5], the pest or weed control at 200 ppm was ≥ 80%. The pest or weed control at 200 ppm in data set [3] was ≥ 80%. The inhibition at 20 ppm in data set [2] was ≥ 80%.
In the case of `O=C(NCc1ccc(-c2noc(C(F)(F)F)n2)cc1)C(=O)N1CCCCC1` [Compound 4.40, 2-oxo-2-(1-piperidyl)-N-[[4-[5-(trifluoromethyl)-1,2,4-oxadiazol-3-yl]phenyl]methyl] acetamide], the melting point lay in the range of 104 to 108 °C. Besides, the pest or weed control at 200 ppm in data set [4] is ≥ 80%. In data set [5], the pest or weed control at 200 ppm is ≥ 80%. In data set [3], the pest or weed control at 200 ppm was ≥ 80%. Moreover, the inhibition at 20 ppm in data set [2] was ≥ 80%.
Compound `CON1CCC(N(C)C(=O)C(=O)NCc2ccc(-c3noc(C(F)(F)F)n3)cc2)CC1` [Compound 4.44, N′-(1-methoxy-4-piperidyl)-N′-methyl-N-[[4-[5-(trifluoromethyl)-1,2,4-oxadiazol-3-yl]phenyl]methyl] oxamide] came in with a melting point of 123 to 125 °C. Moreover, the pest or weed control at 200 ppm in data set [4] is ≥ 80%. Moreover, the pest or weed control at 200 ppm in data set [5] is ≥ 80%. In addition, the pest or weed control at 200 ppm in data set [3] is ≥ 80%. Moreover, the inhibition at 20 ppm in data set [2] is ≥ 80%.
